Assay results: patent publication EP2161024A1, “Combination product for the treatment of cancer” (Universitätsklinikum Hamburg-Eppendorf, priority 2008, dated 2010)

Assays:
OH1-Zellen = experiment: XTT cell proliferation (growth) test with OH1 cells; conditions: single agent (alleinige Gabe), 1 µM to 0,001 µM, 72 h incubation, Figur 2
Zelllinie H82 = experiment: XTT cell proliferation (growth) test with H82 cells; conditions: for Zellwachstum: single agent (alleinige Gabe), H82 cells, Figur 7
Zelllinie H69 = experiment: XTT cell proliferation (growth) test with H69 cells; format: cell-based; conditions: single agent (alleinige Gabe), Figuren 5a, 5b

| Compound | Wachstum der OH1-Zellen (OH1-Zellen) | Zellwachstum (Zelllinie H82) | Wachstum der Zellen (Zelllinie H69) | inhibition at 5 µM (Zelllinie H82; Homo sapiens, NCI-H82, read-out: Hemmung der Proliferation) [%] |
| --- | --- | --- | --- | --- |
| CCC(C)C(=O)OC1CC(C)C=C2C=CC(C)C(CCC3CC(O)CC(=O)O3)C21 (stereo not drawn) [Lovastatin, [8-[2-(4-hydroxy-6-oxo-oxan-2-yl)ethyl]-3,7-dimethyl-1,2,3,7,8,8a-hexahydronaphthalen-1-yl]-2-methylbutanoat] | nicht zu einer Verringerung des Wachstums | kaum Auswirkungen auf das Zellwachstum | – | – |
| COc1ccc(CCN2CCC(Nc3nc4ccccc4n3Cc3ccc(F)cc3)CC2)cc1 [Astemizol, 1-[(4-Fluorphenyl)methyl]-N-[1-[2-(4-methoxyphenyl)ethyl]-4-piperidyl]benzoimidazol-2-amin] | nicht zu einer Verringerung des Wachstums | kaum Auswirkungen auf das Zellwachstum | nicht zu einer Verringerung des Wachstums | 50 |
| CC(C)c1c(C(=O)Nc2ccccc2)c(-c2ccccc2)c(-c2ccc(F)cc2)n1CC[C@@H](O)C[C@@H](O)CC(=O)O [Atorvastatin, (3R,5R)-7-[2-(4-Fluorphenyl)-5-isopropyl-3-phenyl-4-(phenylcarbamoyl)pyrrol-1-yl]-3,5-dihydroxyheptansäure] | nicht zu einer Verringerung des Wachstums | kaum Auswirkungen auf das Zellwachstum | nicht zu einer Verringerung des Wachstums | – |
